Patent US8273686B2, “Method for combating phytopathogenic fungi” (priority 2006, dated 2012)

Columns and labels:
Type in all cases: cell-based
[1] = tested on: Phaeomoniella chlamydospora; experiment: Microtitre test, growth inhibition (optical density 405 nm); settings: tested at 125, 31, 8, 2, 0.5 and 0.125 ppm a.i.; 7 and 14 days' incubation at 23° C.
Experimental: (§1) The products were provided as technical quality active ingredient. Stock solutions of the active ingredients were prepared in DMSO at a concentration of 10 000 ppm a.i. All products were tested at 125, 31, 8, 2, 0.5 and 0.125 ppm a.i.; the DMSO concentration was the same in all dilutions.
(§2) Spore suspensions of the test fungi were prepared in a yeast extract, Bacto peptone and glycerol liquid medium.
(§3) Equal volumes of test compound and spore suspension were added, in triplicate, to the wells of 96-well microtitre plates. The optical densities of the wells were measured with the aid of a photometer at 405 nm immediately after preparation.
(§4) Incubation of the plates followed at 23° C. Further optical density measurements were made after 7 and 14 days' incubation. Growth in the treated wells was compared with the growth in the control (=water) wells.

[2] = tested on: Phaeomoniella chlamydospora; experiment: Mycelium growth inhibition on PDA Petri dishes; settings: mean of 3 repetitions
Experimental: (§5) Test pathogens were Phaeoacremonium sp., Phaemoniella chlamydospora and Fomitiporella vitis (pathogens associated with the Esca disease) as well as Cylindrocarpon destructans and Botryosphaeria sp. (pathogens frequently isolated from vine wood with Esca symptoms).
(§6) The concentrations of active ingredient added to the culture medium were determined previously by diffusion of the product in agar inoculated for the corresponding species.
(§7) Subsequently the diameters of the pathogen growths (mm) were determined visually until the […] (pathogen in PDA medium without fungicide) fully colonised the Petri dishes.
(§8) Levels of inhibition of mycelium growth for different fungal species in relation to fungicide concentration. The results are expressed as percentages and represent the mean of 3 repetitions

[3] = tested on: Fomitiporella vitis; experiment: Mycelium growth inhibition on PDA Petri dishes; settings: mean of 3 repetitions
Experimental: as §5, §6, §7, §8

[4] = tested on: Cylindrocarpon destructans; experiment: Mycelium growth inhibition on PDA Petri dishes; settings: mean of 3 repetitions
Experimental: as §5, §6, §7, §8

[5] = tested on: Botryosphaeria sp.; experiment: Mycelium growth inhibition on PDA Petri dishes; settings: mean of 3 repetitions
Experimental: as §5, §6, §7, §8

[6] = tested on: Phaeoacremonium sp.; experiment: Mycelium growth inhibition on PDA Petri dishes; settings: mean of 3 repetitions
Experimental: as §5, §6, §7, §8

[7] = tested on: Ganoderma sp.; experiment: Mycelium growth inhibition on PDA Petri dishes; settings: mean of 3 repetitions
Experimental: as §6, §7, §8

[8] = tested on: Phaeoacremonium aleophilum; experiment: Microtitre test, growth inhibition (optical density 405 nm); settings: tested at 125, 31, 8, 2, 0.5 and 0.125 ppm a.i.; 7 and 14 days' incubation at 23° C.
Experimental: as §1, §2, §3, §4

[9] = 0.1 ppm active ingredient (as Comet)
[10] = 1 ppm active ingredient (as Comet)
[11] = 10 ppm active ingredient (as Comet)
[12] = 100 ppm active ingredient (as Comet)
[13] = 1000 ppm active ingredient (as Comet)

CO/N=C(/C(=O)OC)c1ccccc1COc1ccccc1C [kresoxim-methyl]
inhibition of the growth of Phaeomoniella chlamydospora [1]: strong to very strong

COC(=O)N(OC)c1ccccc1COc1ccn(-c2ccc(Cl)cc2)n1 [pyraclostrobin]
Percentage mycelium inhibition [2, 9]: 64.91% | Percentage mycelium inhibition [2, 10]: 93.57% | Percentage mycelium inhibition [2, 11]: 95.32% | Percentage mycelium inhibition [2, 12]: 96.49% | Percentage mycelium inhibition [2, 13]: 100.00% | Percentage mycelium inhibition [3, 9]: 46.47% | Percentage mycelium inhibition [3, 10]: 92.75% | Percentage mycelium inhibition [3, 11]: 98.62% | Percentage mycelium inhibition [3, 12]: 100.00% | Percentage mycelium inhibition [3, 13]: 100.00% | Percentage mycelium inhibition [4, 9]: 33.33% | Percentage mycelium inhibition [4, 10]: 69.61% | Percentage mycelium inhibition [4, 11]: 86.67% | Percentage mycelium inhibition [4, 12]: 90.59% | Percentage mycelium inhibition [4, 13]: 100.00% | Percentage mycelium inhibition [5, 9]: 23.14% | Percentage mycelium inhibition [5, 10]: 48.04% | Percentage mycelium inhibition [5, 11]: 66.08% | Percentage mycelium inhibition [5, 12]: 88.43% | Percentage mycelium inhibition [5, 13]: 100.00% | Percentage mycelium inhibition [6, 9]: 35.65% | Percentage mycelium inhibition [6, 10]: 61.00% | Percentage mycelium inhibition [6, 11]: 77.27% | Percentage mycelium inhibition [6, 12]: 88.28% | Percentage mycelium inhibition [6, 13]: 100.00% | Percentage mycelium inhibition [7, 9]: 21.18% | Percentage mycelium inhibition [7, 10]: 65.88% | Percentage mycelium inhibition [7, 11]: 91.37% | Percentage mycelium inhibition [7, 12]: 100.00% | Percentage mycelium inhibition [7, 13]: 100.00% | inhibition of the growth of Phaeomoniella chlamydospora [1]: strong to very strong | inhibition of the growth of Phaeoacremonium aleophilum [8]: strong to very strong
